# Assay results as given in US20250129070A1, “BIFUNCTIONAL ANDROGEN RECEPTOR COMPOUNDS” (priority 2023, published 2025).
# Tested on: AR / CBP ternary complex
# Assay: Ternary complex formation assay (sandwich ELISA, AR capture / CBP detection) in VCaP cell lysates
# Format: cell-based
# Details: 1.5 hours treatment, sandwich ELISA (AR capture, CBP or p300 detection)
# Method in brief: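 Anti-AR (AR 441)-coated plates capture AR from lysates of VCaP cells grown ≥3 days at 50K/well in 5% charcoal-stripped FBS, dosed with bifunctional for 1.5 h and lysed 30 min at 4 °C. Co-captured CBP/p300 is probed with rabbit mAb and HRP anti-rabbit, then QuantaRed fluorescence (570/585) is read at 0, 5 and 15 min.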
row,Compound,EC50 [nM]
1,"COc1cc(OC2C(C)(C)C(NC(=O)c3ccc(N4CCC(C5CCC(n6nc(N7CCCc8cc(-c9cnn(C)c9)c(C(F)F)cc87)c7c6CCN(C(C)=O)C7)CC5)CC4)cc3)C2(C)C)ccc1C#N (centres unmarked) [Compound 258, 4-[4-[4-[5-acetyl-3-[7-(difluoromethyl)-6-(1-methylpyrazol-4-yl)-3,4-dihydro-2H-quinolin-1-yl]-6,7-dihydro-4H-pyrazolo[4,3-c]pyridin-1-yl]cyclohexyl]-1-piperidyl]-N-[3-(4-cyano-3-methoxy-phenoxy)-2,2,4,4-tetramethyl-cyclobutyl]benzamide]",1 to 10
2,"COc1cc(OC2C(C)(C)C(NC(=N)c3ccc(N4CCC(N(C)C5CCC(n6nc(N7CCCc8cc(-c9cnn(C)c9)c(C(F)F)cc87)c7c6CCN(C(C)=O)C7)CC5)CC4)cc3)C2(C)C)ccc1C#N (centres unmarked) [Compound 278, 4-[4-[[4-[5-acetyl-3-[7-(difluoromethyl)-6-(1-methylpyrazol-4-yl)-3,4-dihydro-2H-quinolin-1-yl]-6,7-dihydro-4H-pyrazolo[4,3-c]pyridin-1-yl]cyclohexyl]-methyl-amino]-1-piperidyl]-N-[3-(4-cyano-3-methoxy-phenoxy)-2,2,4,4-tetramethyl-cyclobutyl]benzamidine]",< 1
3,"CC(=O)N1CCc2c(c(N3CCCc4cc(-c5cnn(C)c5)c(C(F)F)cc43)nn2C2CCN(C(=O)N3CCN(c4ncc(C(=O)NC5C(C)(C)C(Oc6ccc(C#N)c(Cl)c6)C5(C)C)cn4)CC3)CC2)C1 (centres unmarked) [Compound 112, 2-[4-[4-[5-acetyl-3-[7-(difluoromethyl)-6-(1-methylpyrazol-4-yl)-3,4-dihydro-2H-quinolin-1-yl]-6,7-dihydro-4H-pyrazolo[4,3-c]pyridin-1-yl]piperidine-1-carbonyl]piperazin-1-yl]-N-[3-(3-chloro-4-cyano-phenoxy)-2,2,4,4-tetramethyl-cyclobutyl]pyrimidine-5-carboxamide]",< 1
4,"CC(=O)N1CCc2c(c(N3CCCc4cc(-c5cnn(C)c5)c(C(F)F)cc43)nn2C2CCN(C3CC4(CCN(c5ncc(C(=O)NC6C(C)(C)C(Oc7ccc(C#N)c(Cl)c7)C6(C)C)cn5)C4)C3)CC2)C1 (centres unmarked) [Compound 346, 2-[2-[4-[5-acetyl-3-[7-(difluoromethyl)-6-(1-methylpyrazol-4-yl)-3,4-dihydro-2H-quinolin-1-yl]-6,7-dihydro-4H-pyrazolo[4,3-c]pyridin-1-yl]-1-piperidyl]-6-azaspiro [3.4]octan-6-yl]-N-[3-(3-chloro-4-cyano-phenoxy)-2,2,4,4-tetramethyl-cyclobutyl]pyrimidine-5-carboxamide]",< 1
5,"CC(=O)N1CCc2c(c(N3CCCc4cc(-c5cnn(C)c5)c(C(F)F)cc43)nn2C2CCC(COC3CCN(c4ncc(C(=O)NC5C(C)(C)C(Oc6ccc(C#N)c(Cl)c6)C5(C)C)cn4)CC3)CC2)C1 (centres unmarked) [Compound 173, 2-[4-[[4-[5-acetyl-3-[7-(difluoromethyl)-6-(1-methylpyrazol-4-yl)-3,4-dihydro-2H-quinolin-1-yl]-6,7-dihydro-4H-pyrazolo[4,3-c]pyridin-1-yl]cyclohexyl]methoxy]-1-piperidyl]-N-[3-(3-chloro-4-cyano-phenoxy)-2,2,4,4-tetramethyl-cyclobutyl]pyrimidine-5-carboxamide]",< 1
6,"CC(=O)N1CCc2c(c(N3CCCc4cc(-c5cnn(C)c5)c(C(F)F)cc43)nn2C2CCN(CC3C(C)CN(c4ncc(C(=O)NC5C(C)(C)C(Oc6ccc(C#N)c(C(F)(F)F)c6)C5(C)C)cn4)CC3C)CC2)C1 (centres unmarked) [Compound 463, 2-[4-[[4-[5-acetyl-3-[7-(difluoromethyl)-6-(1-methylpyrazol-4-yl)-3,4-dihydro-2H-quinolin-1-yl]-6,7-dihydro-4H-pyrazolo[4,3-c]pyridin-1-yl]-1-piperidyl]methyl]-3,5-dimethyl-1-piperidyl]-N-[3-[4-cyano-3-(trifluoromethyl)phenoxy]-2,2,4,4-tetramethyl-cyclobutyl]pyrimidine-5-carboxamide]",< 1
7,"CC(=O)N1CCc2c(c(N3CCCc4cc(-c5cnn(C)c5)c(C)cc43)nn2C2CCN(C(=O)CC3CCN(c4ncc(C(=O)NC5C(C)(C)C(Oc6ccc(C#N)c(Cl)c6)C5(C)C)cn4)CC3)CC2)C1 (centres unmarked) [Compound 176, 2-[4-[2-[4-[5-acetyl-3-[7-methyl-6-(1-methylpyrazol-4-yl)-3,4-dihydro-2H-quinolin-1-yl]-6,7-dihydro-4H-pyrazolo[4,3-c]pyridin-1-yl]-1-piperidyl]-2-oxo-ethyl]-1-piperidyl]-N-[3-(3-chloro-4-cyano-phenoxy)-2,2,4,4-tetramethyl-cyclobutyl]pyrimidine-5-carboxamide]",< 1
8,"CC(=O)N1CCc2c(c(N3CCCc4cc(-c5cnn(C)c5)c(C(F)F)cc43)nn2C2CCC(OC3CN(c4ncc(C(=O)NC5C(C)(C)C(Oc6ccc(C#N)c(Cl)c6)C5(C)C)cn4)C3)CC2)C1 (centres unmarked) [Compound 340, 2-[3-[4-[5-acetyl-3-[7-(difluoromethyl)-6-(1-methylpyrazol-4-yl)-3,4-dihydro-2H-quinolin-1-yl]-6,7-dihydro-4H-pyrazolo[4,3-c]pyridin-1-yl]cyclohexoxy]azetidin-1-yl]-N-[3-(3-chloro-4-cyano-phenoxy)-2,2,4,4-tetramethyl-cyclobutyl]pyrimidine-5-carboxamide]",< 1
9,"CC(=O)N1CCc2c(c(N3CCCc4cc(-c5cnn(C)c5)c(C(F)F)cc43)nn2C2CCN(C3CCC4(C3)CN(c3ncc(C(=O)NC5C(C)(C)C(Oc6ccc(C#N)c(Cl)c6)C5(C)C)cn3)C4)CC2)C1 (centres unmarked) [Compound 344, 2-[6-[4-[5-acetyl-3-[7-(difluoromethyl)-6-(1-methylpyrazol-4-yl)-3,4-dihydro-2H-quinolin-1-yl]-6,7-dihydro-4H-pyrazolo[4,3-c]pyridin-1-yl]-1-piperidyl]-2-azaspiro[3.4]octan-2-yl]-N-[3-(3-chloro-4-cyano-phenoxy)-2,2,4,4-tetramethyl-cyclobutyl]pyrimidine-5-carboxamide]",< 1
10,"CC(=O)N1CCc2c(c(N3CCCc4cc(-c5cnn(C)c5)c(C(F)F)cc43)nn2C2CCN(C3CCC(Oc4ncc(C(=O)NC5C(C)(C)C(Oc6ccc(C#N)c(Cl)c6)C5(C)C)cn4)CC3)CC2)C1 (centres unmarked) [Compound 382, 2-[4-[4-[5-acetyl-3-[7-(difluoromethyl)-6-(1-methylpyrazol-4-yl)-3,4-dihydro-2H-quinolin-1-yl]-6,7-dihydro-4H-pyrazolo[4,3-c]pyridin-1-yl]-1-piperidyl]cyclohexoxy]-N-[3-(3-chloro-4-cyano-phenoxy)-2,2,4,4-tetramethyl-cyclobutyl]pyrimidine-5-carboxamide]",< 1
11,"CC(=O)N1CCc2c(c(Nc3ccc(-c4cnn(C)c4)cc3F)nn2C2CCN(CCC3CCN(c4ncc(C(=O)NC5C(C)(C)C(Oc6ccc(C#N)c(Cl)c6)C5(C)C)cn4)CC3)C2)C1 (centres unmarked) [Compound 6, 2-[4-[2-[3-[5-acetyl-3-[2-fluoro-4-(1-methylpyrazol-4-yl)anilino]-6,7-dihydro-4H-pyrazolo[4,3-c]pyridin-1-yl]pyrrolidin-1-yl]ethyl]-1-piperidyl]-N-[3-(3-chloro-4-cyano-phenoxy)-2,2,4,4-tetramethyl-cyclobutyl]pyrimidine-5-carboxamide]",> 100
